Reference: article PMC8261254 (Asian Journal of Pharmaceutical Sciences, 2021)
≈ marks a conversion by molar mass, not a printed value. Like-named read-outs stand apart in the source and are kept apart here.

Tests used:
[1] = cited from earlier work
[2] = PTX solubility in PLHNs / water; assay type: physicochemical

In the case of CC(=O)O[C@H]1C(=O)[C@@]2(C)[C@H]([C@H](OC(=O)c3ccccc3)[C@]3(O)C[C@H](OC(=O)[C@H](O)[C@@H](NC(=O)c4ccccc4)c4ccccc4)C(C)=C1C3(C)C)[C@]1(OC(C)=O)CO[C@@H]1C[C@@H]2O [PTX, Paclitaxel], the “Plasma concentration threshold above which PTX is pharmacologically active” value [1] is listed as 0.1 µM, the “Plasma concentration threshold above which PTX is pharmacologically active” value ([1]; equivalent of 0.1 µM) is listed as 85.3 ng/ml and the solubility [2] is listed as roughly 6 µg/mL (≈ 7.03 µM).
